Test results as given in BindingDB's records for doi:10.1021/ml200030q (2011).

Assay: Antagonist activity at mouse CCR2 assessed as inhibition of MCP1-induced chemotaxis after 30 mins

| SMILES | IC50 [nM] |
| --- | --- |
| Cc1ccc([C@]2(O)CC[C@H](N3CC[C@@H](NC(=O)CNC(=O)c4cccc(C(F)(F)F)c4)C3)CC2)cc1 | 156 |

Assay: Antagonist activity at CCR2 in human PBMC assessed as inhibition of MCP1-induced chemotaxis after 30 mins

| SMILES | IC50 [nM] |
| --- | --- |
| O=C(CNC(=O)c1cccc(C(F)(F)F)c1)N[C@@H]1CCN([C@H]2CC[C@@](O)(c3cccnc3)CC2)C1 | 3.9 |
| O=C(CNC(=O)c1cccc(C(F)(F)F)c1)N[C@@H]1CCN([C@H]2CC[C@@](O)(c3ccncc3)CC2)C1 | 3 |
| O=C(CNC(=O)c1cccc(C(F)(F)F)c1)N[C@@H]1CCN([C@H]2CC[C@@](O)(c3ncccn3)CC2)C1 | 9.3 |
| O=C(CNC(=O)c1cccc(C(F)(F)F)c1)N[C@@H]1CCN([C@H]2CC[C@@](O)(c3cncnc3)CC2)C1 | 20 |
| O=C(CNC(=O)c1cccc(C(F)(F)F)c1)N[C@@H]1CCN([C@H]2CC[C@@](O)(c3cccnn3)CC2)C1 | 5.8 |
| O=C(CNC(=O)c1cccc(C(F)(F)F)c1)N[C@@H]1CCN([C@H]2CC[C@@](O)(c3ccnnc3)CC2)C1 | 7.2 |
| Cc1ccc([C@]2(O)CC[C@H](N3CC[C@@H](NC(=O)CNC(=O)c4cccc(C(F)(F)F)c4)C3)CC2)cn1 | 5.6 |
| CCOc1ccc([C@]2(O)CC[C@H](N3CC[C@@H](NC(=O)CNC(=O)c4cccc(C(F)(F)F)c4)C3)CC2)cn1 | 2.7 |
